Reference: patent publication US20040024024A1, “Aromatic sulfone hydroxamates and their use as protease inhibitors” (priority 2001, published 2004)

Experiments:
Human recombinant MMP-1 = biological target: T1, Human recombinant MMP-1 (Homo sapiens, UniProt P03956); assay: In vitro MMP inhibition, IC50 determination (fluorogenic substrate I); type: biochemical; conditions: value outside parenthesis
T1 construct: made in house; host or cells: MMP-1-transfected HT-1080 cells (spent media)
T1 sequence (P03956 100-469): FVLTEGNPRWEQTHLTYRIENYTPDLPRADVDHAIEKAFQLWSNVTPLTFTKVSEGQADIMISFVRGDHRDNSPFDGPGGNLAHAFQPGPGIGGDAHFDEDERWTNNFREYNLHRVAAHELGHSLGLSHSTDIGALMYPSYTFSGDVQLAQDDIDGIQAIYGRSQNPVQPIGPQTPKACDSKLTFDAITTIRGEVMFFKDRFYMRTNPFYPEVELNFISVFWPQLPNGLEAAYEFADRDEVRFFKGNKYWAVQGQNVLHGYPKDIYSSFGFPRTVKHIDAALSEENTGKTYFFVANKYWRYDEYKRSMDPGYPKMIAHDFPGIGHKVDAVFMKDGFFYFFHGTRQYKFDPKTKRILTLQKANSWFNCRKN
How it was run: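 Inhibitor dilutions were made in 100 mM Tris-HCl/100 mM NaCl/10 mM CaCl2 buffer, pH 7.5, and incubated at room temperature with activated proenzyme (from transfected HT-1080 media; APMA or trypsin) and 4 μM quenched methoxycoumarin peptide substrate. Loss of 415 nm fluorescence (328 nm excitation) against concentration gave IC50.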

Human recombinant MMP-13 = biological target: T2, Human recombinant MMP-13 (Homo sapiens, UniProt P45452); assay: In vitro MMP inhibition, Ki determination (fluorogenic substrate II); type: biochemical; conditions: value in parenthesis
T2 construct: made in house; host or cells: baculovirus / insect cells
Method: Several hydroxamates and salts thereof were analyzed in in vitro assays to determine their ability to inhibit the MMP cleavage of peptide substrates. Inhibition (Ki) and IC50 constants were calculated from the assayed hydroxamate-MMP interactions.
Human recombinant MMP-1, MMP-2, MMP-9, MMP-13, and MMP-14 were used in this assay. All enzymes were prepared in Assignee's laboratories following usual laboratory procedures. Protocols for the preparation and use of these enzymes are available in the scientific literature. See, e.g., Enzyme Nomenclature (Academic Press, San Diego, Calif., 1992) (and the citations therein). See also, Frije et al., J. Biol. Chem., 26(24), 16766-73 (1994).
The expressed proenzyme was first purified over a heparin agarose column, and then over a chelating zinc chloride column. The proenzyme was then activated by APMA for use in the assay. Further details on baculovirus expression systems may be found in, for example, Luckow et al., J. Virol., 67, 4566-79 (1993). See also, O'Reilly et al, Baculovirus Expression Vectors: A Laboratory Manual (W. H. Freeman and Co., New York, N.Y., 1992). See also, King et al., The Baculovirus Expression System: A Laboratory Guide (Chapman & Hall, London, England, 1992).
All MMPs were activated using 4-aminophenylmercuric acetate (“APMA”, Sigma Chemical, St. Louis, Mo.) or trypsin. MMP-9 also was activated using human recombinant MMP-3 (purified in Assignee's laboratory following standard cloning and purification techniques).
Two fluorogenic, methoxycoumarin-containing polypeptide substrates were used in the MMP inhibition assays:
MCA-ArgProLeuGlyLeuDpaAlaArgGluArgNH2 (II)
Here, “Dpa” is 3-(2,4-dinitrophenyl)-L-2,3-diaminopropionyl group, and “MCA” is 7-methoxycoumarin-4-yl acetyl. Substrate (I) was purchased from Baychem (Redwood City, Calif.), and substrate II was prepared Assignee's laboratory. Substrate I was used in the IC50 determination assays, while substrate II was used in the Ki determination assays. In the absence of MMP inhibitory activity, either substrate is cleaved at the Gly-Leu peptide bond. This cleavage separates the highly fluorogenic peptide from the 2,4-dinitrophenyl quencher, thus resulting in increase of fluorescent intensity.
The stock solutions of the assayed hydroxamates (or salts thereof) were prepared in 1% dimethyl sulfoxide (DMSO). These stock solutions were diluted in Buffer A (100 mM Tris-HCl, 100 mM NaCl, 10 mM CaCl2, 0.05% polyoxyethylene 23 lauryl ether, pH 7.5) to obtain solutions with different hydroxamate concentrations, i.e., assay solutions with different concentrations of the assayed MMP inhibitory compound. The experiment controls contained the same amount of Buffer A/DMSO as the assayed sample, but contained no hydroxamate (or salt thereof).
The assays from which the Ki determinations were made were performed as follows. The assayed hydroxamate samples were incubated in separate wells of untreated white polystyrene plates (Nunc Nalgene International, Rochester, N.Y.), and analyzed on a Tecan SpectraFlour Plus plate reader. The excitation wavelength was 330 nm, and the emission wavelength—420 nm. All samples (assayed hydroxamates and controls) were incubated in separate plate wells at room temperature for 1 hr in the presence of 4 μM of MMP substrate (II). In the absence of MMP inhibitory activity, substrate II was cleaved at the Gly-Leu bond resulting in an increase of relative fluorescence. Inhibition was observed as a reduced rate of this increase in relative fluorescence. The various hydroxamates were analyzed using a single low enzyme concentration with a single substrate concentration fixed at or below the Km. This protocol is a modification of method by Knight et al., FEBS Lett., 296(3), 263-266 (1992). Apparent inhibitory constants were determined by non-linear regression of reaction velocity as a function of inhibitor and enzyme concentration using Morrison's equation, as described by Kuzmic, Anal. Biochem. 286, 45-50 (2000). […]

IC50 (Human recombinant MMP-1): > 10000 nM | Ki (Human recombinant MMP-13): 0.37 nM
SMILES: O=C(NO)C1(S(=O)(=O)c2ccc(OCCCc3ccnc(-c4ccccc4)c3)cc2)CCOCC1 [Example 197]
